Here are results for 23 compounds from patent US20240368158A1, “KINASE MODULATORS, COMPOSITIONS COMPRISING THE KINASE MODULATOR, AND METHODS OF USING THE SAME” (BIOFRONT LTD, priority 2021, published 2024).

The target of one assay is T1, HPK1 (Homo sapiens, UniProt Q92918).
T1 construct: purchased Signal Chem M23-11G-10
T1 sequence (Q92918 1-346 limits assumed): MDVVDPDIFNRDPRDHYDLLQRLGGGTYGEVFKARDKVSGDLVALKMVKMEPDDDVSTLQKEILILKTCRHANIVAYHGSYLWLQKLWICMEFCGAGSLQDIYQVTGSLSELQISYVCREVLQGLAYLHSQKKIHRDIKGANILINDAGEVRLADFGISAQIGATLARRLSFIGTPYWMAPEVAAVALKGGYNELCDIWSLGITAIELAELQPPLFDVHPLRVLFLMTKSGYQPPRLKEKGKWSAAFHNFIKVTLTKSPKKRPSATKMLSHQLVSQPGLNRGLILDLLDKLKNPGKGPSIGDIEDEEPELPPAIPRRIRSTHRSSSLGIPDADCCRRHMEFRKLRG
The assay is described as follows: HPK1 enzyme inhibition assay (ADP-Glo). It is filed as biochemical. The note with it: MBP substrate, ATP. On the procedure: The compound was dissolved in 100% DMSO at the concentration of 10 mM. The HPK1 protein was purchased from Signal Chem (M23-11G-10). 2.5 μL per well of 2×HPK1 protein was added to assay plate containing the test compound, centrifuged at 1500 rpm for 1 minute, and then incubated at 25° C. for 60 minutes. MBP protein was purchased from Signal Chem (M42-51N) and ATP was purchased from Promega (V9102). The two were added 2.5 μL per well mixture of 2×MBP (0.2 ug/ul) and ATP (20 μM), centrifuged at 1500 rpm for 1 minute, then incubated at 25° C. for 60 minutes. Then added 5 μL of ADP-Glo from Promega (V9102) to the assay plate and depleted the unconsumed ATP for 60 minutes. Then centrifuged at 1500 rpm for 1 minute and incubated at 25° C. for 60 minutes. Finally, 10 μL of the kinase assay reagent from Promega (V9102) was added to the assay plate to convert ADP to ATP, centrifuged at 1500 rpm for 1 minute, incubate at 25° C. for 40 minutes. After 40 minutes incubation, the […] was determined. Based on the results, the IC50 value of the compound was calculated.

Assay [1] relates to HPK1 p-SLP-76 in Jurkat cells. The assay is described as follows: HPK1 p-SLP-76 inhibition assay in Jurkat cells (HTRF). Particulars: Homo sapiens, 4 h compound, anti-CD3 stimulation 20 min. It is filed as cell-based. The method, then: Before compound treatment, Jurkat cells were starved in PRMI-1640 medium supplemented with 0.5% FBS overnight. The cell density was adjusted to 1*10^7 cells/mL in assay medium (RPMI-1640 no phenol red with 0.5% FBS) and 16 uL cell suspension was transferred per well to a 384-well plate (Corning #3765). […] of test compound was prepared in assay medium and 4 uL was added per well to the 384-well plate. The plate was then incubated at 37° C., 5% CO2 for 4 h. Jurkat cells in 384-well plate were stimulated with anti-CD3 (BD Biosciences #555329, final conc. is 10 ug/mL) for 20 min at 37° C., 5% CO2 by adding 4 uL 6× antibody solution per well. Phospho-SLP76 HTRF kit was purchased from Cisbio (63ADK076PEH). 8 uL 4× Lysis Buffer was added to 384-well plate after anti-CD3 stimulation. The plate was centrifuged at 1,000 rpm for 1 min, shaken at 250 rpm for 60 min and centrifuged again at 1,000 rpm for 5 min. Afterwards the cell lysates were transferred to the assay plate (Greiner #784075) with 16 uL per well. 4 uL detection antibody mix per well prepared in Detection Buffer was added to the assay plate, followed by centrifugation at 1,000 rpm for 1 min and incubation at 25° C. overnight. The fluorescence emission at two different wavelengths (665 nm and 620 nm) was read by an HTRF compatible microplate reader and the IC50 value of the compound was calculated.

In the case of `CCc1c[nH]c2ncc(-c3cccc(N4CCN(CCOC)CC4=O)c3)c(Cl)c12` [Example 28, 1-(3-(4-chloro-3-ethyl-1H-pyrrolo[2,3-b]pyridin-5-yl)phenyl)-4-(2-methoxyethyl)piperazin-2-one], the IC50 against HPK1 was ≤ 10 nM; in assay [1], 300 to 3000 nM.
`COCCN1CCN(c2cccc(-c3cnc4[nH]cc(C5CC5)c4c3Cl)c2)C(=O)C1` [Example 39, 1-(3-(4-chloro-3-cyclopropyl-1H-pyrrolo[2,3-b]pyridin-5-yl)phenyl)-4-(2-methoxyethyl)piperazin-2-one]: the IC50 is ≤ 10 nM against HPK1 and 300 to 3000 nM in assay [1].
Turning to `O=C1CN(S(=O)(=O)CCCN2CC(F)C2)CCN1c1cccc(-c2cnc3[nH]cc(C4CC4)c3c2Cl)c1` [Example 58, 1-(3-(4-chloro-3-cyclopropyl-1H-pyrrolo[2,3-b]pyridin-5-yl)phenyl)-4-((3-(3-fluoroazetidin-1-yl)propyl)sulfonyl)piperazin-2-one], the IC50 on HPK1 was ≤ 10 nM; in assay [1] it was 300 to 3000 nM.
`CS(=O)(=O)N1CCN(c2cccc(-c3cnc4[nH]cc(CC(F)F)c4c3Cl)n2)C(=O)C1` [Example 61, 1-(6-(4-chloro-3-(2,2-difluoroethyl)-1H-pyrrolo[2,3-b]pyridin-5-yl)pyridin-2-yl)-4-(methylsulfonyl)piperazin-2-one]: the values for the IC50 (against HPK1; in assay [1]) were ≤ 10 nM and 300 to 3000 nM, respectively.
As to `CCc1c[nH]c2ncc(-c3cccc(N4CCN(C(=O)CCCNC(=O)CC56CC7CC(CC(C7)C5)C6)CC4=O)c3)c(Cl)c12` [Example 34, 2-((3r,5r,7r)-adamantan-1-yl)-N-(4-(4-(3-(4-chloro-3-ethyl-1H-pyrrolo[2,3-b]pyridin-5-yl)phenyl)-3-oxopiperazin-1-yl)-4-oxobutyl)acetamide], the IC50 was in the range of 10 to 100 nM against HPK1 and 3000 to 10000 nM in assay [1].
Regarding `CCc1c[nH]c2ncc(-c3cc(N4CCNCC4=O)ccc3CO)cc12` [Example 21, 1-(3-(3-ethyl-1H-pyrrolo[2,3-b]pyridin-5-yl)-4-(hydroxymethyl)phenyl)piperazin-2-one], the IC50 against HPK1 was > 1000 nM; in assay [1], > 10000 nM.
On to `CCc1c[nH]c2ncc(-c3cccc(N4CCNCC4=O)n3)c(Cl)c12` [Example 9, 1-(6-(4-chloro-3-ethyl-1H-pyrrolo[2,3-b]pyridin-5-yl)pyridin-2-yl)piperazin-2-one], for which the IC50 is ≤ 10 nM against HPK1 and 300 to 3000 nM in assay [1].
Regarding `COCC(=O)N1CCN(c2cccc(-c3cnc4[nH]cc(C#Cc5ncn(C)n5)c4c3Cl)c2)C(=O)C1` [Example 36, 1-(3-(4-chloro-3-((1-methyl-1H-1,2,4-triazol-3-yl)ethynyl)-1H-pyrrolo[2,3-b]pyridin-5-yl)phenyl)-4-(2-methoxyacetyl)piperazin-2-one], the IC50 against HPK1 is 10 to 100 nM; in assay [1] it was > 10000 nM.
The like results for `CCc1c[nH]c2ncc(-c3cccc(N4CCNCC4=O)c3)c(Cl)c12` [Example 1, 1-(3-(4-chloro-3-ethyl-1H-pyrrolo[2,3-b]pyridin-5-yl)phenyl)piperazin-2-one] were, in that order, ≤ 10 nM and 300 to 3000 nM.
With `CC(C)(C)C#Cc1c[nH]c2ncc(-c3cccc(N4CCNCC4=O)c3)c(Cl)c12` [Example 3, 1-(3-(4-chloro-3-(3,3-dimethylbut-1-yn-1-yl)-1H-pyrrolo[2,3-b]pyridin-5-yl)phenyl) piperazin-2-one], the IC50 on HPK1 lay within 100 to 1000 nM; in assay [1], 300 to 3000 nM.
Regarding `CCc1c[nH]c2ncc(-c3cccc(N4CCC[C@H](CO)C4=O)c3)c(Cl)c12` [Example 23, (R)-1-(3-(4-chloro-3-ethyl-1H-pyrrolo[2,3-b]pyridin-5-yl)phenyl)-3-(hydroxymethyl)piperidin-2-one], the figures for the IC50 (against HPK1; in assay [1]) were ≤ 10 nM and 300 to 3000 nM, respectively.
On to `Cc1ccc(C#Cc2c[nH]c3ncc(-c4cccc(N5CCNCC5=O)c4)c(Cl)c23)cn1` [Example 13, 1-(3-(4-chloro-3-((6-methylpyridin-3-yl)ethynyl)-1H-pyrrolo[2,3-b]pyridin-5-yl)phenyl)piperazin-2-one], for which the IC50 against HPK1 lay within 10 to 100 nM; in assay [1], 3000 to 10000 nM.
With `Cn1cnc(C#Cc2c[nH]c3ncc(-c4cccc(N5CCNCC5=O)c4)c(Cl)c23)n1` [Example 14, 1-(3-(4-chloro-3-((1-methyl-1H-1,2,4-triazol-3-yl)ethynyl)-1H-pyrrolo[2,3-b]pyridin-5-yl)phenyl)piperazin-2-one], the results for the IC50 (against HPK1; in assay [1]) were 10 to 100 nM and > 10000 nM, respectively.
Take `CN(C)CC(=O)N1CCN(c2cccc(-c3cnc4[nH]cc(C#Cc5cccnc5)c4c3Cl)c2)C(=O)C1` [Example 30, 1-(3-(4-chloro-3-(pyridin-3-ylethynyl)-1H-pyrrolo[2,3-b]pyridin-5-yl)phenyl)-4-(dimethylglycyl)piperazin-2-one]: the IC50 was 10 to 100 nM on HPK1 and 300 to 3000 nM in assay [1].
`COCCS(=O)(=O)N1CCN(c2cccc(-c3cnc4[nH]cc(C5CC5)c4c3Cl)c2)C(=O)C1` [Example 54, 1-(3-(4-chloro-3-cyclopropyl-1H-pyrrolo[2,3-b]pyridin-5-yl)phenyl)-4-((2-methoxyethyl)sulfonyl)piperazin-2-one]: the IC50 against HPK1 was ≤ 10 nM; in assay [1] it was 300 to 3000 nM.
The like results for `CCc1c[nH]c2ncc(-c3cccc(N4CCN(C(=O)[C@@H](N)C(C)C)CC4=O)c3)c(Cl)c12` [Example 42, 4-(L-valyl)-1-(3-(4-chloro-3-ethyl-1H-pyrrolo[2,3-b]pyridin-5-yl)phenyl)piperazin-2-one] were, in that order, 10 to 100 nM and 3000 to 10000 nM.
`O=C1CNCCN1c1cccc(-c2cnc3[nH]cc(C4CC4)c3c2Cl)c1` [Example 4, 1-(3-(4-chloro-3-cyclopropyl-1H-pyrrolo[2,3-b]pyridin-5-yl)phenyl) piperazin-2-one]: the IC50 on HPK1 is ≤ 10 nM; in assay [1], 300 to 3000 nM.
Consider `COCCN1CCN(c2cccc(-c3cnc4[nH]cc(CC(F)F)c4c3Cl)c2)C(=O)C1` [Example 37, 1-(3-(4-chloro-3-(2,2-difluoroethyl)-1H-pyrrolo[2,3-b]pyridin-5-yl)phenyl)-4-(2-methoxyethyl)piperazin-2-one], for which the IC50 against HPK1 is 10 to 100 nM; in assay [1], 300 to 3000 nM.
As to `O=C1CN(S(=O)(=O)CCCN2CCOCC2)CCN1c1cccc(-c2cnc3[nH]cc(CC(F)F)c3c2Cl)c1` [Example 59, 1-(3-(4-chloro-3-(2,2-difluoroethyl)-1H-pyrrolo[2,3-b]pyridin-5-yl)phenyl)-4-((3-morpholinopropyl)sulfonyl)piperazin-2-one], the values for the IC50 (at HPK1; in assay [1]) were ≤ 10 nM and 300 to 3000 nM, respectively.
As to `O=C1CNCCN1c1cncc(-c2cnc3[nH]cc(C4CC4)c3c2Cl)c1` [Example 19, 1-(5-(4-chloro-3-cyclopropyl-1H-pyrrolo[2,3-b]pyridin-5-yl)pyridin-3-yl)piperazin-2-one], the IC50 against HPK1 is 100 to 1000 nM; in assay [1] it was > 10000 nM.
On to `CCc1c[nH]c2ncc(-c3cc(N4CCNCC4=O)ccc3CN(C)C)cc12` [Example 40, 1-(4-((dimethylamino)methyl)-3-(3-ethyl-1H-pyrrolo[2,3-b]pyridin-5-yl)phenyl)piperazin-2-one], for which the results for the IC50 (on HPK1; in assay [1]) were > 1000 nM and > 10000 nM, respectively.
Turning to `O=C1CNCCN1c1cccc(-c2cnc3[nH]cc(C#CC4CC4)c3c2Cl)c1` [Example 5, 1-(3-(4-chloro-3-(cyclopropylethynyl)-1H-pyrrolo[2,3-b]pyridin-5-yl)phenyl) piperazin-2-one], the IC50 was ≤ 10 nM against HPK1 and > 10000 nM in assay [1].
As for `CCc1c[nH]c2ncc(-c3cccc(N4CCN(C(=O)OC)CC4=O)c3)c(Cl)c12` [Example 27, Methyl 4-(3-(4-chloro-3-ethyl-1H-pyrrolo[2,3-b]pyridin-5-yl)phenyl)-3-oxopiperazine-1-carboxylate], the IC50 was ≤ 10 nM against HPK1 and ≤ 300 nM in assay [1].
